These results are taken from patent publication US20050256132A1, “Use of ER selective NF-kB inhibitors for the treatment of sepsis” (priority 2003, published 2005).

SMILES strings stand for the structures.

The subject of one assay is Creatine Kinase. As to the kind of experiment: Creatine kinase expression in Ad5-wt-ERα infected HAECT-1 cells (Table 1). Type of assay: cell-based, human. The note with it: Homo sapiens, HAECT1, read-out: Creatine Kinase EC50. As to the method:
T-175 flasks of 100% confluent HAECT-1 cells (immortalized human aortic endothelial cells) were washed with 8 mL of HBSS (HEPES buffered saline solution) and infected for four hours with 6 mL of a 1:10 dilution of Ad5-wt-hERα virus (an adenovirus transfection vector that mediates CMV promoter driven expression of human ERα) in phenol red free Endothelial Cell Basal medium (Clonetics, San Diego Calif., Catalog # CC-3129) containing 0.25% bovine serum albumin (EBM-BSA). After four hours, cells were washed with EBM-BSA and incubated overnight in the same medium. Following overnight incubation, cells were washed with EBM-BSA and infected for 2 hours with 6 mL of a 1:10 dilution of Ad5-3x(NF-κB).Luc virus (Adenovirus luciferase expression vector driven by 3 repeats of the MHC NF-κb site 5′ to the thymidine kinase promoter) in EBM-BSA. […]
ERα infected HAECT-1 cells or control cells were thawed, diluted 42× in warm EBM-BSA, plated into 96-well plates at 0.1 mL/well and incubated for 4 hours at 34° C. […] Luciferase was determined on a Wallac Victor Luminometer (Gaithersburg, Md.) using 10 μL of lysate and mixing with 100 μL of Promega Luciferase Assay reagent. Creatine kinase was determined from the rate of increase in A340 following addition of 100 μL of CK assay reagent (Sigma, cat. No 47-10) to the remainder of the cell lysate. […]

A further assay relates to CK. As to the kind of experiment: CK activity in lysate of ERα expressing HAECT-1 cells. The note with it: FIG. 1D. In kind it is cell-based, human. As to the method: (A) The effect of compound 67 on NF-κB mediated luciferase reporter activity in HAECT-1 cells expressing ERα. […] (C) The effect of compound 67 on the human IL-6 promoter luciferase reporter activity in HAECT-1 cells expressing either ERα (squares) or ERβ (diamonds). (D) The remaining lysate from (A) was used to determine CK activity.
HAECT-1 cells (Chadwick C C, et al., Proc Natl Acad Sciences, 2005, 102(7): 2543-2548) were cultured in EGM (GIBCO, Rockville, Md.) containing 10% FBS, 1% GlutaMAX and 0.1% Antimycotic-Antibiotic in Falcon T-175 culture flasks at 34° C. in 5% CO2 and infected for four hours with Ad5-wt-ER virus. After overnight recovery, the cells were infected for 2 hours with the Ad5-3x(NFκB).Luc or Ad5-IL6.Luc virus. Compound 67 and 2 ng/ml IL-1 were added to the cells for 15-20 h and the cell lysate was assayed for luciferase activity and evaluated for CK expression (Stanbio Laboratories, Texas). The values are reported as mean±SEM with n=4 from at least 3 independent experiments.

Take `C[C@]12CC[C@@H]3c4ccc(O)cc4CC[C@H]3[C@@H]1CC[C@@H]2O` [Example E2, 17β-estradiol, reference compound]: the EC50 in the assay with Creatine Kinase worked out at 5.8 nM; in the assay on CK (Homo sapiens, HAECT1), 2 nM. Also, the “stimulation of CK activity” value in the assay with CK was “approximately 1.7 fold”.
